Measurements taken from ChEMBL document CHEMBL3132769, “Fragment growing to retain or alter the selectivity of anchored kinase hinge-binding fragments” (Medchemcomm, 2014).

Experiments:
[1] = molecular target: Serine/threonine-protein kinase MARK1 (Homo sapiens) (UniProt Q9P0L2); experiment: Inhibition of human full length MARK1 expressed in baculovirus assessed as substrate phosphorylation using fluorescence-labelled peptides as substrate at 0.06 uM after 90 mins by microfluidic peptide phosphorylation assay
[2] = molecular target: T1, cGMP-dependent protein kinase 1 (Homo sapiens) (UniProt Q13976); experiment: Inhibition of human full length PKG-1a expressed in baculovirus assessed as substrate phosphorylation using fluorescence-labelled peptides as substrate at 70 uM after 90 mins by microfluidic peptide phosphorylation assay
T1 sequence (whole entry): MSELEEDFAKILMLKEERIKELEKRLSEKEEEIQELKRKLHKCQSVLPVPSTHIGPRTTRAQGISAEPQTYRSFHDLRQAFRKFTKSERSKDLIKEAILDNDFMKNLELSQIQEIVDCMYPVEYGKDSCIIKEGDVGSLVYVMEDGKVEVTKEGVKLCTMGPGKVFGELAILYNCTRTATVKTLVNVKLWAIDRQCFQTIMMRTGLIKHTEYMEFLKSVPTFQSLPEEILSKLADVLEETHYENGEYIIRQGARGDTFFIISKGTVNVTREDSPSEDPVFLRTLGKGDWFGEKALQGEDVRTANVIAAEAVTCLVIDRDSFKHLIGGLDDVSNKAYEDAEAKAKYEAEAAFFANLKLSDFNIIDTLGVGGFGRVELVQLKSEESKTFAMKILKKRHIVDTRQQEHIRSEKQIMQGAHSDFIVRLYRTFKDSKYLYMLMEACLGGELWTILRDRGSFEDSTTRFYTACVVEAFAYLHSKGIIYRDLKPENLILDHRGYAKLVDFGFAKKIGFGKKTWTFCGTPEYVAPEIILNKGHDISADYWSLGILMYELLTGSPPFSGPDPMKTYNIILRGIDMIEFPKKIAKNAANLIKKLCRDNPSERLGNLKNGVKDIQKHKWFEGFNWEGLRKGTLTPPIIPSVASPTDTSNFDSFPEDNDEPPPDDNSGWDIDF

[3] = molecular target: Fibroblast growth factor receptor 1 (Homo sapiens) (UniProt P11362); experiment: Inhibition of human FGFR1 catalytic domain expressed in baculovirus assessed as substrate phosphorylation using fluorescence-labelled peptides as substrate at 0.2 uM after 90 mins by microfluidic peptide phosphorylation assay
[4] = molecular target: T2, Calcium/calmodulin-dependent protein kinase type IV (Homo sapiens) (UniProt Q16566); experiment: Inhibition of human full length CAMK4 expressed in baculovirus assessed as substrate phosphorylation using fluorescence-labelled peptides as substrate at 0.2 uM after 90 mins by microfluidic peptide phosphorylation assay
T2 sequence (whole entry): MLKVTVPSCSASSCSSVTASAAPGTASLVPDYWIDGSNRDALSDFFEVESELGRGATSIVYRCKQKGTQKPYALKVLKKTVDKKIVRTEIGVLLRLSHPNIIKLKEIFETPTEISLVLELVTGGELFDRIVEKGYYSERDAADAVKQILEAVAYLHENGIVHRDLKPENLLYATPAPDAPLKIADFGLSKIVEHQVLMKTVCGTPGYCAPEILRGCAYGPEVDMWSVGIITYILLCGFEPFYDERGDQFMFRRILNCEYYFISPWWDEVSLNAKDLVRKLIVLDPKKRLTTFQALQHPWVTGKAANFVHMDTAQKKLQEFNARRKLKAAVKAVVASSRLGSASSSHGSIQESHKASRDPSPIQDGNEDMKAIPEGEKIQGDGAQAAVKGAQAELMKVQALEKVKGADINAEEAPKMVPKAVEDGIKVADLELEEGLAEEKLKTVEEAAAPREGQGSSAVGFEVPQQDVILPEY

[5] = molecular target: T3, Testis-specific serine/threonine-protein kinase 2 (Homo sapiens) (UniProt Q96PF2); experiment: Inhibition of human full length TSSK2 expressed in baculovirus assessed as substrate phosphorylation using fluorescence-labelled peptides as substrate at 0.2 uM after 90 mins by microfluidic peptide phosphorylation assay
T3 sequence (whole entry): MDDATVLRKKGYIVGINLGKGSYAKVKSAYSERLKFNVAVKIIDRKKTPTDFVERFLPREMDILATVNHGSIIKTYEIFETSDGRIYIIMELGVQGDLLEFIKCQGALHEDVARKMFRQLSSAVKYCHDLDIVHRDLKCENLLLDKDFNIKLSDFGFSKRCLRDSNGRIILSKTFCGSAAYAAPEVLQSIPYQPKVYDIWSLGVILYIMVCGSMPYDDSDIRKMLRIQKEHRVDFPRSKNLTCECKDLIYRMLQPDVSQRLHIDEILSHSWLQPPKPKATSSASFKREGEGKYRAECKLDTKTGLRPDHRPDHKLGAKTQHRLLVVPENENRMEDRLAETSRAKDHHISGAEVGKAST

[6] = molecular target: Receptor-type tyrosine-protein kinase FLT3 (Homo sapiens) (UniProt P36888); experiment: Inhibition of human FLT3 catalytic domain expressed in baculovirus assessed as substrate phosphorylation using fluorescence-labelled peptides as substrate at 420 uM after 90 mins by microfluidic peptide phosphorylation assay
[7] = molecular target: T4, Aurora kinase A (Homo sapiens) (UniProt O14965); experiment: Inhibition of human full length AurA expressed in baculovirus assessed as substrate phosphorylation using fluorescence-labelled peptides as substrate at 95 uM after 90 mins by microfluidic peptide phosphorylation assay
T4 sequence (whole entry): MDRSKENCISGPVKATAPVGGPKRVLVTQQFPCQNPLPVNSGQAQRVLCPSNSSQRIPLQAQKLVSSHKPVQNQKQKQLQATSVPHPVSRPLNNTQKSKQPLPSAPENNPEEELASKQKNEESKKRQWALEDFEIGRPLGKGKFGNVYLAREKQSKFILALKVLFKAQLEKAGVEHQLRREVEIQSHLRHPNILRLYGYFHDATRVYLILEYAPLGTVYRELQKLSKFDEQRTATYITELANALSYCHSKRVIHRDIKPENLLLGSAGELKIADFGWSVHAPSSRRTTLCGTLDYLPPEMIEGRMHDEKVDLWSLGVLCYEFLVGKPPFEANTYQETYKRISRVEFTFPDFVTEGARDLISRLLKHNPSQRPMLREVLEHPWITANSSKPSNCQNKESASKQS

Chain of Fibroblast growth factor receptor 1 (Homo sapiens) (P11362 22-822 limits assumed): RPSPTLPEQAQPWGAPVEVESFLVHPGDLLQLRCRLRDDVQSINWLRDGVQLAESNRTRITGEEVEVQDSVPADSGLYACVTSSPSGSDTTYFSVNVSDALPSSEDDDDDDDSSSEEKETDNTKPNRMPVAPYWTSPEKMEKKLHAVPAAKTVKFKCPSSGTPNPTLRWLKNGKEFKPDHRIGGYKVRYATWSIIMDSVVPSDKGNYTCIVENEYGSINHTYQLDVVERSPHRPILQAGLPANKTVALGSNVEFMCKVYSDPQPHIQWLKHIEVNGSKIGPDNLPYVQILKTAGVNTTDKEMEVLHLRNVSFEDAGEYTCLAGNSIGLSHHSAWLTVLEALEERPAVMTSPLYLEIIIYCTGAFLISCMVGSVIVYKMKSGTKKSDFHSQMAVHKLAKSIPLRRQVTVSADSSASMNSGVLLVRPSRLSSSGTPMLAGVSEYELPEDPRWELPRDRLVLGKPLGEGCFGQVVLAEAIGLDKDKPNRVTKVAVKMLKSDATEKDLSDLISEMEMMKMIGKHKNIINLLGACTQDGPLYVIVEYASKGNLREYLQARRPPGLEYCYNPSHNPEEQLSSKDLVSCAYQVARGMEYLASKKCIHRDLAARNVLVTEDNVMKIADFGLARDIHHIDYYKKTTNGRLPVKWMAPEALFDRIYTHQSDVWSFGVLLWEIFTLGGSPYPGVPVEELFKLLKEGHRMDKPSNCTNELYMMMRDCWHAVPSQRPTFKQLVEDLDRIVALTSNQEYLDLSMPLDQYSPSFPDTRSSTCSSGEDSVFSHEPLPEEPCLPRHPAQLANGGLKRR
Chain of Receptor-type tyrosine-protein kinase FLT3 (Homo sapiens) (P36888 whole entry, the tested form may be a part): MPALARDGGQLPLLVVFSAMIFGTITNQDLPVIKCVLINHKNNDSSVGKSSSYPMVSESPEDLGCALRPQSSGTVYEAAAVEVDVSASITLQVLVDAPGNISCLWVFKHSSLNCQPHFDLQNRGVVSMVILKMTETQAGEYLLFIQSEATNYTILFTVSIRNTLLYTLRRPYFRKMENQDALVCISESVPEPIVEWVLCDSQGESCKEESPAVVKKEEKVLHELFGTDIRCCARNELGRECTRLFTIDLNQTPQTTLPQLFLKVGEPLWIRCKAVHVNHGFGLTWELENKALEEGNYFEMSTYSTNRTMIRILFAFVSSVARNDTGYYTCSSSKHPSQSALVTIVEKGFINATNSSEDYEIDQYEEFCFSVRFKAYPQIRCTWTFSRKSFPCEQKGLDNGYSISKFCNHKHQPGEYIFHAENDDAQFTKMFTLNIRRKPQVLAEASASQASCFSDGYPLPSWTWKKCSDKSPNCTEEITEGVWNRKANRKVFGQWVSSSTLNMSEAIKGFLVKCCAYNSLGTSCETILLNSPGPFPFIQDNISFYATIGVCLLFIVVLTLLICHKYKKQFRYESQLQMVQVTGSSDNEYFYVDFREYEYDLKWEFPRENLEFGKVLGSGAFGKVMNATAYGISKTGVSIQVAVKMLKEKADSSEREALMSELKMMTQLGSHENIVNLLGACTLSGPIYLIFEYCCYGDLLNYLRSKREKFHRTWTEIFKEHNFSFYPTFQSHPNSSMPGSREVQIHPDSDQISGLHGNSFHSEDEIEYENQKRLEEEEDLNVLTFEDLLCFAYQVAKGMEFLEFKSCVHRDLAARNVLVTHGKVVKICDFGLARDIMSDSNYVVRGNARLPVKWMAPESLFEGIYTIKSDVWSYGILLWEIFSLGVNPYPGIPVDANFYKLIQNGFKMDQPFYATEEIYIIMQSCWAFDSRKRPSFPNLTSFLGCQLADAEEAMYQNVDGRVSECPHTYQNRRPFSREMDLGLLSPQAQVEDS
Chain of Serine/threonine-protein kinase MARK1 (Homo sapiens) (Q9P0L2 whole entry, looked up): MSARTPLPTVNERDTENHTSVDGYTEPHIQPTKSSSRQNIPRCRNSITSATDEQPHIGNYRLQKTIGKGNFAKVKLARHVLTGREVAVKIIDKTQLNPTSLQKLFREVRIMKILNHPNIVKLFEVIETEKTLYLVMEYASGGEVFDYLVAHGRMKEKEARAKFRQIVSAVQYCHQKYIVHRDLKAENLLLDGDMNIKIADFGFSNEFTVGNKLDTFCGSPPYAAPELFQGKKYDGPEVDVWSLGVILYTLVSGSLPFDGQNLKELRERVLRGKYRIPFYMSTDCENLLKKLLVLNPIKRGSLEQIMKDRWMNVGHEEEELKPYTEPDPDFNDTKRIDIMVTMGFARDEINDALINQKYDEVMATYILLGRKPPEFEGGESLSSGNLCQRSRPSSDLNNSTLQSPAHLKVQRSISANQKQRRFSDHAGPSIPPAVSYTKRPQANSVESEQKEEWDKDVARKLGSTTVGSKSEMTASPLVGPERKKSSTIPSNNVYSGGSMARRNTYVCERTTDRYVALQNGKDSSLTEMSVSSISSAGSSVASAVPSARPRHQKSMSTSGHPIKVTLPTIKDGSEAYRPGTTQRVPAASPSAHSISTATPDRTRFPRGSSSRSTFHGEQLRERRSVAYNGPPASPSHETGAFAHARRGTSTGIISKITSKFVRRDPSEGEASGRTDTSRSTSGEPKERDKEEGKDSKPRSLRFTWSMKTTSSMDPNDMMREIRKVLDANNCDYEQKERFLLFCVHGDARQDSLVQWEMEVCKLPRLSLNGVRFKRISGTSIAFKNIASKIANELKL

Structure (SMILES): NC1(Cc2ccc(Cl)cc2)CCN(c2ncnc3[nH]ccc23)CC1
- inhibition [1]: 4.5%

Structure (SMILES): CNCc1ccc(-c2ncnc3[nH]cnc23)cc1
- inhibition [2]: 97.5%

Structure (SMILES): Clc1ccc(C2(c3ccc(-c4ncnc5[nH]cnc45)cc3)CCNCC2)cc1
- inhibition [3]: 13%
- inhibition [4]: 74%
- inhibition [5]: 7%

Structure (SMILES): c1nc(N2CCOCC2)c2nc[nH]c2n1
- inhibition [6]: 85.5%

Structure (SMILES): NCCc1ccc(-c2ncnc3[nH]cnc23)cc1
- inhibition [7]: 85%
